In patent publication US9822190B2, “Compositions and method for anti-sickling of red blood cells in sickle cell disease” (priority 2015, dated 2017):
“Also recorded” adds a separate entry of the source.

Assays:
[1] = test system: RBC from healthy subjects; experiment: Effect on morphology of RBC from healthy subjects; assay type: cell-based, human
Description: (§1) Red Blood Cell (RBC) sickling were studied in blood samples obtained from 12 sickle cell subjects and 6 samples from healthy volunteers matched in terms of age and gender. The blood samples from the subjects were withdrawn and mixed into EDTA tube (10 ml), and then divided into 2 tubes 4-5 ml each (One containing S-NACH 10-100 ug/ml blood added at 10 ul/1 ml blood or PBS buffer solution).
(§2) Blood samples were incubated for 2-3 hours at room temperature and then blood smears were obtained for monitoring shape of RBCs (take photos for later quantitation number of normal vs. sickle RBCs). Then blood samples were centrifuged to get the plasma, and the plasma were frozen for further testing of various biomarkers.

RBC from SCD subjects = experiment: Anti-sickling of RBC from SCD subjects under hypoxia (blood smears); assay type: cell-based, human; settings: for anti-sickling (average): 10 ug/ml blood
Description: as §1, §2

[2] = Plasma tinzaparin level after oral administration to mice (colorimetric assay); assay type: in vivo; settings: oral gavage, 1.6 mg/kg
Description: Nanoformulated LMWH as shown in Examples 1-5 were administered orally to mice versus standard LMWH at the same dose. Blood samples were withdrawn at different time and plasma levels of LMWH were measured using colorimetric assay.
FIG. 11 is a graph of plasma tinzaparin level versus time profiles in mice with formulations administered by oral gavage into the mice at dose of 1.6 mg/kg, in accordance with embodiments of the present invention. Graphs for Tinzaparin, and Chitosan NPs with positive charge and with negative charge are shown. Data are shown as mean±SD (n=4).

Sulfated Non-Anticoagulant Heparin [SNACH]
effect on normal morphology of RBC [1]: no effect; also recorded: without any effect
anti-sickling (average) (RBC from SCD subjects; hypoxia 2-4 hours at 25 degree centigrade, SCD subject #5): > 90%
anti-sickling (average) (RBC from SCD subjects; hypoxia 2-4 hours at 25 degree centigrade, SCD subjects): > 90%
formation of irreversibly sickled cells (RBC from SCD subjects; 2-24 hours incubation under 95% N2/5% CO2, high concentration): significantly decreased

Tinzaparin [standard tinzaparin]
blood levels after oral administration [2]: no detectable blood levels

OC[C@H]1O[C@@](CO)(O[C@H]2O[C@H](CO)[C@@H](O)[C@H](O)[C@H]2O)[C@@H](O)[C@@H]1O [sucrose, reference compound]
effect on the average % of sickle RBC (RBC from SCD subjects; Patient #7, over 2-4 hours hypoxia at 25 degree centigrade): no significant effect
effect on the sickling (RBC from SCD subjects; Patient #7 acute crisis, hypoxia 2-4 hours at 25 degree centigrade): no significant effect
